How the values were obtained:
B2 receptor = target: T1, B2 receptor (Homo sapiens, UniProt P30411); experiment: reversibility of antagonism after washout, umbilical vein; details: for EC50: BK EC50 (nM)
T1 sequence (P30411 1-391): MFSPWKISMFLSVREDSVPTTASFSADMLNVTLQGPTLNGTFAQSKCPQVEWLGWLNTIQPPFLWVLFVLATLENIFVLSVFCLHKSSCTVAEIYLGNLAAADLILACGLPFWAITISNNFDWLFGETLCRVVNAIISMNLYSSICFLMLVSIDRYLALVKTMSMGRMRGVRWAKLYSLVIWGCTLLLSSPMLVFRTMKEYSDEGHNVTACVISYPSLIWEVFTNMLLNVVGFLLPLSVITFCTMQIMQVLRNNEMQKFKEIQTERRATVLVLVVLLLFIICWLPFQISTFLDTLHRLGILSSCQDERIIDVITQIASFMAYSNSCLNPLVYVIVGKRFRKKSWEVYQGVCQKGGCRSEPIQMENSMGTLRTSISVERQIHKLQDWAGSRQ

Adenosine A3 = target: T2, Adenosine A3 (Homo sapiens, UniProt P0DMS8); experiment: radioligand binding (Table S2); details: [125I] AB-MECA, Human recombinant HEK-293 cells
T2 sequence (P0DMS8 1-318): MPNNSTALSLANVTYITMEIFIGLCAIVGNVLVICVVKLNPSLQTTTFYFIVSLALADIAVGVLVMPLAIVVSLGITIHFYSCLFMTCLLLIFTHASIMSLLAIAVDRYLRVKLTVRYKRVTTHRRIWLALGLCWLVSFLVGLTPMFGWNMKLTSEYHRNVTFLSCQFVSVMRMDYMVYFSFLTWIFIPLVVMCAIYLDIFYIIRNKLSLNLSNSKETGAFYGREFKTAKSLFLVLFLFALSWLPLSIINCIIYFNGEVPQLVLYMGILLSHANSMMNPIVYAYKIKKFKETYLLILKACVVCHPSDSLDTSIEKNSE

Bombesin BB2 = target: T3, Bombesin BB2 (Homo sapiens, UniProt P30550); experiment: radioligand binding (Table S2); details: [125I] [Tyr4]-bombesin, Human recombinant HEK-293 cells
T3 construct: host or cells: HEK-293 cells
T3 sequence (P30550 whole entry): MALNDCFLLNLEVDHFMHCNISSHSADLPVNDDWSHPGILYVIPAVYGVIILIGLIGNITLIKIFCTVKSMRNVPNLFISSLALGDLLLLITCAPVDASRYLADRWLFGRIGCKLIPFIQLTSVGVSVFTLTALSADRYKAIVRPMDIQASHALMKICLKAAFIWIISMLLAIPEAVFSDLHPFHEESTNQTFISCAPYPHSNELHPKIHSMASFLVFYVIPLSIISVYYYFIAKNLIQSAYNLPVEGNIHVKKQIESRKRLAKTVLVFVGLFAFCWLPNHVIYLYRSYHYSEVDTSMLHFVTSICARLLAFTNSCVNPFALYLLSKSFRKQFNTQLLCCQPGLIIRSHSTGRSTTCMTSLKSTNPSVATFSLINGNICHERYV

Bradykinin B1 = target: T4, Bradykinin B1 (Homo sapiens, UniProt P46663); experiment: radioligand binding (Table S2)
T4 construct: host or cells: CHO cells
T4 sequence (P46663 whole entry): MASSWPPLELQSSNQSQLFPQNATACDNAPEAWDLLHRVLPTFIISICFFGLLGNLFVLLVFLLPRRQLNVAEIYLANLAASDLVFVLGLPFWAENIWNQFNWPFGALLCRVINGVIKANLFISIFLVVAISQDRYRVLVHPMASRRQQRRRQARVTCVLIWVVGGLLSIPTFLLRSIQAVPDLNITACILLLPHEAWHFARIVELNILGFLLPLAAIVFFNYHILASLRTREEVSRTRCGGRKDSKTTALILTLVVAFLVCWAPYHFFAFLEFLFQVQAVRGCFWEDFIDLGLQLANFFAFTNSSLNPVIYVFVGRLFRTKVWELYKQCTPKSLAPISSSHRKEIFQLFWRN

[1] = test system: Calcium Ca2+ channel (L-dihydropyridine site); experiment: radioligand binding (Table S2); details: [3H] Nitrendepine, Rat cerebral cortex
Cholecystokinin CCK1 = Cholecystokinin CCK1 (Homo sapiens, UniProt P32238); experiment: radioligand binding (Table S2); details: [125I] CCK-8s, Human recombinant CHO cells
Chain of Cholecystokinin CCK1 (P32238 whole entry): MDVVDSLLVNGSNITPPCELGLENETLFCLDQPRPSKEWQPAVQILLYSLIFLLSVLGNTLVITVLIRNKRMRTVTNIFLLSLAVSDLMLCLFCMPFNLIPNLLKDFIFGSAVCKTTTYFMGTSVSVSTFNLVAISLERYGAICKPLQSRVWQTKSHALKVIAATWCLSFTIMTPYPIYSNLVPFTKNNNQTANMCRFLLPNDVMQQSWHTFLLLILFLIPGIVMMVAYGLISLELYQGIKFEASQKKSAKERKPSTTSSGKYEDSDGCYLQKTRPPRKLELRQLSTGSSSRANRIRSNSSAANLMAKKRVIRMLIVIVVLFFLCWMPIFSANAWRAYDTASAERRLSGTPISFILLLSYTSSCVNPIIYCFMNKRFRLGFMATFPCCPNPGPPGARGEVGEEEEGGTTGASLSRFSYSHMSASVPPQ

Dopamine D1 = target: T5, Dopamine D1 (Homo sapiens, UniProt P21728); experiment: radioligand binding (Table S2); details: [3H] SCH 23390, Human recombinant CHO cells
T5 construct: host or cells: CHO cells
T5 sequence (P21728 whole entry): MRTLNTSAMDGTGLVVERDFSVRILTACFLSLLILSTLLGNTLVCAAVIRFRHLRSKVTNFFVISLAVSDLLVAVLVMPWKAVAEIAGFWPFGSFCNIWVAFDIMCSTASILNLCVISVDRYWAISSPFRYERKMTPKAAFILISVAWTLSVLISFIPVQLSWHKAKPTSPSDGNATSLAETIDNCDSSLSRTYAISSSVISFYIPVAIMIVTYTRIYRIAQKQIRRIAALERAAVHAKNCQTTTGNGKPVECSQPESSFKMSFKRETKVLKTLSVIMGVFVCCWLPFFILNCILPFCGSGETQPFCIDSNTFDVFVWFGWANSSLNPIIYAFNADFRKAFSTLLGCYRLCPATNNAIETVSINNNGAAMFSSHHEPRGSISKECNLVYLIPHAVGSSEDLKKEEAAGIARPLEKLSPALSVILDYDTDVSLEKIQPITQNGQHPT

Dopamine D3 = target: T6, Dopamine D3 (Homo sapiens, UniProt P35462); experiment: radioligand binding (Table S2); details: [3H] Methylspiperone, Human recombinant CHO cells
T6 construct: host or cells: CHO cells

[2] = test system: Glutamate ionotropic, AMPA; experiment: radioligand binding (Table S2); details: [3H] AMPA, Rat cerebral cortex
Melanocortin MC3 = target: T7, Melanocortin MC3 (Homo sapiens, UniProt P41968); experiment: radioligand binding (Table S2); details: [125I] NDP-α-MSH, Human recombinant CHO cells
T7 construct: host or cells: CHO cells
T7 sequence (P41968 whole entry): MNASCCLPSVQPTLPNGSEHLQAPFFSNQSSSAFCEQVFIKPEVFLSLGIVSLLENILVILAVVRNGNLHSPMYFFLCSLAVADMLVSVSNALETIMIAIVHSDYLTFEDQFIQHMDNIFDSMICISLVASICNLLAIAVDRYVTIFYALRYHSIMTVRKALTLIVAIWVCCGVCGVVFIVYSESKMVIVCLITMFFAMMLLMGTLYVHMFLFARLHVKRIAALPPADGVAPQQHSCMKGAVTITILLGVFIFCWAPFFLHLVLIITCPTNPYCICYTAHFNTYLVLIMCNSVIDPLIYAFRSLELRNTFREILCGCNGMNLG

Neurokinin NK3 = target: T8, Neurokinin NK3 (Homo sapiens, UniProt P29371); experiment: radioligand binding (Table S2); details: [3H] SR 142801, Human recombinant CHO cells
T8 construct: host or cells: CHO cells
T8 sequence (P29371 1-465): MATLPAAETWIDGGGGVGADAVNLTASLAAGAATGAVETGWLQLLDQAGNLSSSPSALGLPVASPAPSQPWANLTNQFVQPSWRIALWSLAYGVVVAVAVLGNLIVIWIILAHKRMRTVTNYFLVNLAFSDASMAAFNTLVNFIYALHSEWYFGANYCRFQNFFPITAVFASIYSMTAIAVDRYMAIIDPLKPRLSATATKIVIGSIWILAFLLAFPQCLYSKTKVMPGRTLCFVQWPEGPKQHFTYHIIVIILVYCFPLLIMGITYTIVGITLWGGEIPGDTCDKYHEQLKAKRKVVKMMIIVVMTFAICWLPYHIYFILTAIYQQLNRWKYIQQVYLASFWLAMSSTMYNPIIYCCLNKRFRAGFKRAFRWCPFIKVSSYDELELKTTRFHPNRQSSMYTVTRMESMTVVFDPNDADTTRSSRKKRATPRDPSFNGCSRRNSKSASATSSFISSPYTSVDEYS

[3] = target: Nicotinic acetylcholine α1, bungarotoxin (Homo sapiens, UniProt P02708+P07510+Q07001); experiment: biochemical; format: binding; details: read-out: % Inhibition @ 10 µM
Opioid δ (DOP) = target: T9, Opioid δ (DOP) (Homo sapiens, UniProt P41143); experiment: radioligand binding (Table S2); details: [3H] DADLE, Human recombinant CHO cells
T9 construct: host or cells: CHO cells
T9 sequence (P41143 whole entry): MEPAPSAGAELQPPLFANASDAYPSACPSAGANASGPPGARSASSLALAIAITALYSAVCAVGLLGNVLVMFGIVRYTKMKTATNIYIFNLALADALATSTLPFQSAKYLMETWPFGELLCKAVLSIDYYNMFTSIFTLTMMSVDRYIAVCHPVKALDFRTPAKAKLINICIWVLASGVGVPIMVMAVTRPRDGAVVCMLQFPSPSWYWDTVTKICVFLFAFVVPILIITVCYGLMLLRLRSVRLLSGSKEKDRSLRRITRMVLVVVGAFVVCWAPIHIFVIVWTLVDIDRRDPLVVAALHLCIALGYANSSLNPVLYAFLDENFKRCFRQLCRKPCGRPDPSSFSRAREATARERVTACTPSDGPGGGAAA

Orexin OX2 = target: T10, Orexin OX2 (Homo sapiens, UniProt O43614); experiment: radioligand binding (Table S2); details: [125I] Orexin A, Human recombinant HEK-293 cells
T10 construct: host or cells: HEK-293 cells
T10 sequence (O43614 whole entry): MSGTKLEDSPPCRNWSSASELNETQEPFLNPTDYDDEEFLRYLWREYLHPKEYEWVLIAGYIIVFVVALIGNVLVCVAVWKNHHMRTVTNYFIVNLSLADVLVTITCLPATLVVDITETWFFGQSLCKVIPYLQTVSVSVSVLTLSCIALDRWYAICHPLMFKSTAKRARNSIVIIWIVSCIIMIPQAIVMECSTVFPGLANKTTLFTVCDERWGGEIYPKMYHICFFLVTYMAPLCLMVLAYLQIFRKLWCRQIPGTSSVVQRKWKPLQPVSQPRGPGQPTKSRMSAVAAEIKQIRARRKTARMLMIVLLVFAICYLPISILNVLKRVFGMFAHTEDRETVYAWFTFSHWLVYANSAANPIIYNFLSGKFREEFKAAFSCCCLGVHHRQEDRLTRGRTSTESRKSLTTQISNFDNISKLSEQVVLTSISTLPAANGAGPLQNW

Serotonin 5-HT1B = target: T11, Serotonin 5-HT1B (Rattus norvegicus, UniProt P28564); experiment: radioligand binding (Table S2); details: [125I] CYP (+ 30 µM isoproterenol), Rat cerebral cortex
T11 construct: tissue Eurofins; host or cells: rat cerebral cortex
T11 sequence (P28564 whole entry): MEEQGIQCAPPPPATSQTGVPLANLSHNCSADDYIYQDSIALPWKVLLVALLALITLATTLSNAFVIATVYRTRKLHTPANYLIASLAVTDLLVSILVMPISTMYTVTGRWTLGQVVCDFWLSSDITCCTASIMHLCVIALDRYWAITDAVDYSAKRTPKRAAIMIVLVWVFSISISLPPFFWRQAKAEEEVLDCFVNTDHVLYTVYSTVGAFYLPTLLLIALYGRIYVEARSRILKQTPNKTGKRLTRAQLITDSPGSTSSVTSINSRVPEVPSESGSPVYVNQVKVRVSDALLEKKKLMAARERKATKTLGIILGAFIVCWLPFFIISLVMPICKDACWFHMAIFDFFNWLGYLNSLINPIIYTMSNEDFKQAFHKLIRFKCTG

Serotonin 5-HT2B = target: T12, Serotonin 5-HT2B (Homo sapiens, UniProt P41595); experiment: radioligand binding (Table S2); details: [125I] (±)DOI, Human recombinant CHO cells
T12 construct: host or cells: CHO cells
T12 sequence (P41595 whole entry): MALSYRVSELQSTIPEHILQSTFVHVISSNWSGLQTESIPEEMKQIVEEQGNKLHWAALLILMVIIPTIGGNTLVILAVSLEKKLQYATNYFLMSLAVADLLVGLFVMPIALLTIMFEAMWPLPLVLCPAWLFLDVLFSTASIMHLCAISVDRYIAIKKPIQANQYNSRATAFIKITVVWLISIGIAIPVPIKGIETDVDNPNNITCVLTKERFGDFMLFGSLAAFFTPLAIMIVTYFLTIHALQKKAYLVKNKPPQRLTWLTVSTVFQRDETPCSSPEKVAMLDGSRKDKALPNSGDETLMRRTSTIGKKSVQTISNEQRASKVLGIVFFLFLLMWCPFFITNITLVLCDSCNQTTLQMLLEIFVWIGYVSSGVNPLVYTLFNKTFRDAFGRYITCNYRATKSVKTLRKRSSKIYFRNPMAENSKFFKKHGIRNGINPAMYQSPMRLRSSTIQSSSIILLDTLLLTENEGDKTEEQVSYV

Thyroid hormone = experiment: radioligand binding (Table S2); details: [125I] Triiodothyronine, Rat liver
PDGFRα kinase = target: T13, PDGFRα kinase (Homo sapiens, UniProt P16234); experiment: enzyme assay (Table S2); format: biochemical; details: ATP + Ulight-TK peptide (100 nM), LANCE
T13 construct: Eurofins (assay provider)
T13 sequence (P16234 24-1089): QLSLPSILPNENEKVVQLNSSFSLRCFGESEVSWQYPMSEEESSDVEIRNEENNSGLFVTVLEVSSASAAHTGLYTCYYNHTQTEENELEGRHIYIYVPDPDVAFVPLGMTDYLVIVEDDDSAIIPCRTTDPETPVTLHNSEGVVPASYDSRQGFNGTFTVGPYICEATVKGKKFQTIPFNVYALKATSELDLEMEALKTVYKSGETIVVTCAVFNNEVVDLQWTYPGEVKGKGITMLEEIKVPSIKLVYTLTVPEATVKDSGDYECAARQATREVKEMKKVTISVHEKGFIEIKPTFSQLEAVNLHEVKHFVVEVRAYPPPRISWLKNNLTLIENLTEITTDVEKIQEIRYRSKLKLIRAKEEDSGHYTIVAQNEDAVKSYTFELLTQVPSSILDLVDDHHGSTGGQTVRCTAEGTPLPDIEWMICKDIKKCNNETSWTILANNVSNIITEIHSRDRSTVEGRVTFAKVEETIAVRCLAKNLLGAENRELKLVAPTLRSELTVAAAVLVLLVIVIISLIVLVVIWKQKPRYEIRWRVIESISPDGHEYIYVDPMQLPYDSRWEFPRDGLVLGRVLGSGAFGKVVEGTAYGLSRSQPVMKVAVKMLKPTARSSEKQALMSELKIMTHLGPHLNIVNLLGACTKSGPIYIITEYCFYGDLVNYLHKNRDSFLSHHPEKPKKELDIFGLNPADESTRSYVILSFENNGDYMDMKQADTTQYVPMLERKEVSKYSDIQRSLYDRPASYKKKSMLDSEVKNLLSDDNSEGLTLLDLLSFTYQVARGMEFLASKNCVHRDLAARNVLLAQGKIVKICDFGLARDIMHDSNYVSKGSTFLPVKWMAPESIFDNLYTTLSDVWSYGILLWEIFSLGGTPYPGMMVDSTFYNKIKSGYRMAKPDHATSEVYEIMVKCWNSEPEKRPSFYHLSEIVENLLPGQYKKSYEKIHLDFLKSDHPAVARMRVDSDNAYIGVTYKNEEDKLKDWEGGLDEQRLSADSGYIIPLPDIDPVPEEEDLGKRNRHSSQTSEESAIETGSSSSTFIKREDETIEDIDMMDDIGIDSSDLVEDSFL

Adrenergic β1 = Adrenergic β1 (Homo sapiens, UniProt P08588); experiment: radioligand binding (Table S2); details: read-out: % Inhibition @ 10 µM
Cannabinoid CB1 = Cannabinoid CB1 (Homo sapiens, UniProt P21554); experiment: radioligand binding (Table S2); details: read-out: % Inhibition @ 10 µM
[4] = test system: Gamma-aminobutyric acid GABAA, muscimol, central; experiment: radioligand binding (Table S2); details: [3H] Muscimol, Wistar rat brain (minus cerebellum)

Compound: Cc1cc(-c2ncnn2C)c2cccc(OCc3c(Cl)cc(F)cc3[C@H](C)NC(=O)COC(F)F)c2n1 [Compound 3, (S)-N-(1-(3-chloro-5-fluoro-2-((2-methyl-4-(1-methyl-1H-1,2,4-triazol-5-yl)quinolin-8-yloxy)methyl)phenyl)ethyl)-2-(difluoromethoxy)acetamide]
- reversibility of antagonism after washout (B2 receptor; 100 nM): partial or slow reversibility
- reversibility of antagonism after washout (B2 receptor; 1 and 10 nM): fully reversible
- EC50 (B2 receptor; after washout, 5 h, washout after Compound 3 1 nM, 5 h, vehicle washout 20.8 nM): 22 nM
- EC50 (B2 receptor; after washout, 5 h, washout after Compound 3 10 nM, 5 h, vehicle washout 20.8 nM): 38.5 nM
- EC50 (B2 receptor; after washout, 5 h, washout after Compound 3 100 nM, 5 h, vehicle washout 11.7 nM): 84.1 nM
- EC50 (B2 receptor; antagonist present, 3 h, Compound 3 1 nM, vehicle 3 h 18.7 nM): 67.4 nM
- EC50 (B2 receptor; antagonist present, 3 h, Compound 3 10 nM, vehicle 3 h 18.7 nM): 225 nM
- EC50 (B2 receptor; antagonist present, 3 h, Compound 3 100 nM, vehicle 3 h 7.5 nM): 713 nM
- inhibition at 10 µM (Adenosine A3): 39.8%
- inhibition at 10 µM (Bombesin BB2): -1.4%
- inhibition at 10 µM (Bradykinin B1): 0.5%
- % Inhibition @ 10 µM [1]: 7.3%
- inhibition at 10 µM (Cholecystokinin CCK1): 2.7%
- inhibition at 10 µM (Dopamine D1): 6.9%
- inhibition at 10 µM (Dopamine D3): 4.8%
- % Inhibition @ 10 µM [2]: 3.0%
- inhibition at 10 µM (Melanocortin MC3): -8.2%
- inhibition at 10 µM (Neurokinin NK3): 6.1%
- inhibition at 10 µM [3]: -1%
- inhibition at 10 µM (Opioid δ (DOP)): 10.6%
- inhibition at 10 µM (Orexin OX2): 25.9%
- inhibition at 10 µM (Serotonin 5-HT1B): -2.5%
- inhibition at 10 µM (Serotonin 5-HT2B): -8.9%
- % Inhibition @ 10 µM (Thyroid hormone): 6.4%
- inhibition at 10 µM (PDGFRα kinase): -2.6%
- inhibition at 10 µM (Adrenergic β1): 0.3%
- inhibition at 10 µM (Cannabinoid CB1): -3%
- % Inhibition @ 10 µM [4]: 12%
